Source: patent US9045482B2, “Pyrido[4,3-B]indoles and methods of use” (Medivation Technologies, Inc., priority 2009, dated 2015)

Biological target: T1, human recombinant histamine H2 receptor (Homo sapiens, UniProt P25021)
T1 construct: expressed in transfected cells; host or cells: Chinese hamster ovary (CHO) K1 cells
Test: Histamine H2 radioligand binding (Aminopotentidine)
Settings: read-out: Binding data (Percentage Inhibition) Histamine Binding H2
Procedure: To evaluate in radioligand binding assays the activity of compounds of the invention, human recombinant histamine H2 receptor expressed in Chinese hamster ovary (CHO) K1 cells [Ruat, M., Proc. Natl. Acad. Sci. USA. (1990), 87(5):1658] in a 50 mM Phosphate buffer, pH 7.4 was used. Compounds of the invention were incubated with 0.1 nM […] for 120 min at 25° C. Non-specific binding was estimated in the presence of 3 μM Tiotidine. Receptor proteins were filtered and washed, the filters were then counted to determine […] specifically bound. Compounds were screened at 1 μM or lower, using 1% DMSO as vehicle. Biochemical assay results are presented as the percent inhibition of specific binding in Table 2.

T1 sequence (P25021 whole entry): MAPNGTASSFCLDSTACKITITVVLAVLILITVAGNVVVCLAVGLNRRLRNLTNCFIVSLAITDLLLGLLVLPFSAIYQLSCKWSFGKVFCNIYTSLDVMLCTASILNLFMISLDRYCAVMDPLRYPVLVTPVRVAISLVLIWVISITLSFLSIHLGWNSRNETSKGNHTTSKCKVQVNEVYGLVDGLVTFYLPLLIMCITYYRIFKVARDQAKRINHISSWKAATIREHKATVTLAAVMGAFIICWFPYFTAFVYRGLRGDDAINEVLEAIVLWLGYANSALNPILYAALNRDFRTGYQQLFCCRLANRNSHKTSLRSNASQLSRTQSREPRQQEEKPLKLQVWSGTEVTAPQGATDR

## Fc1ccc(CCn2c3c(c4cc(Cl)ccc42)C2CCCN2CC3)cc1 (centres unmarked) [Compound 1, 7-(4-fluorophenethyl)-10-chloro-2,3,5,6,7,11c-hexahydro-1H-indolizino[7,8-b]indole]
  inhibition at 1 µM: 15%

## Fc1ccc(CCn2c3c(c4cc(Cl)ccc42)CN2CCCC2C3)cc1 (centres unmarked) [Compound 2, 10-(4-fluorophenethyl)-7-chloro-2,3,5,10,11,11a-hexahydro-1H-indolizino[7,6-b]indole]
  inhibition at 1 µM: 17%
